IC50 data for 37 molecules are collected here from patent publication US20100173888A1 (Pfizer Inc, priority 2008, published 2010).

Sequence of human recombinant H-PGDS (O60760 whole entry): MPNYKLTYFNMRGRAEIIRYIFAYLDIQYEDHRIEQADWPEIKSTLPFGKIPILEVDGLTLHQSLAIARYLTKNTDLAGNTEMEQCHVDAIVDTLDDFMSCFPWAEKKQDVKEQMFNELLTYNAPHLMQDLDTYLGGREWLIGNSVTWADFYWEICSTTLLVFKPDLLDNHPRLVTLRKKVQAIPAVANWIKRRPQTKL

In this assay the target is human recombinant H-PGDS (Homo sapiens, UniProt O60760). Kind of assay: Fluorescence intensity h-PGDS TBA enzyme assay (PGH2 depletion, MDA/TBA fluorescence). In kind it is biochemical. The conditions noted are these: 1:175,000 human recombinant H-PGDS, 42 second reaction, 3-fold serial dilutions, highest concentration typically 1 μM. On the procedure:
Fluoresecence Intensity h-PGDSTBA Enzyme Assay
Prostaglandin D Synthase (PGDS) converts the substrate prostaglandin H2 (PGH2) to prostaglandin D2. The depletion of PGH2 was measured via an Fe(II) reduction of the remaining PGH2 to malondialdehyde (MDA) and 12-HHT. The enzyme assay is based on the quantitative formation of a fluorescent complex from the non-fluorescent compounds MDA and 2-thiobarbituric acid (TBA), substantially as described in U.S. patent application publication US-2004/152148 by Lombardt.
The enzyme assay (31 μls) contained 100 mM Tris base pH 8.0, 100 μM MgCl2, 0.1 mg/ml IgG Rabbit serum, 5.0 μM PGH2 (Cayman; ethanol solution, #17020), 2.5 mM L-Glutathione (Sigma; reduced form. #G4251), 1:175,000 human recombinant H-PGDS (from 1 mg/ml), 0.5% DMSO and inhibitor (varying concentration). Three μls of diluted inhibitor (dissolved in DMSO) was plated into a 384-well assay plate followed by a 25 μl addition of an enzyme solution containing h-PGDS, Tris, MgCl2, IgG and L-Glutathione. After preincubation of inhibitor and enzyme solution for 10 minutes at room temperature, the reaction was initiated with a 3 μl addition of substrate solution in 10 mM HCl. The reaction was terminated after 42 second by the addition (3 μl) of stop buffer containing FeCl2 and citric acid. After addition of 45.5 μls of TBA plates were heated for one hour in a 70° C. oven. Plates were cooled at room temperature overnight and read on a plate reader the next day with excitation @ 530 nm and emission @ 565 nm.
IC50' s of inhibitors were calculated with a 4-parameter fit using 11 inhibitor concentrations in duplicate with 3-fold serial dilutions. Controls on each plate included no inhibitor (zero % effect) and an inhibitor 10-fold in excess of its' IC50 (100% effect). The highest inhibitor concentration tested was typically 1 μM.
As usually defined, the IC50 is the midpoint of a concentration-inhibition curve. As to `CC(=O)N1CC(NC[C@H]2CCC[C@@H](NC(=O)c3ccc(-c4cccc(F)c4)nc3)C2)C1` (relative stereo) [Example 257], the IC50 worked out at 34.5 nM. Next, `O=C(N[C@@H]1CCC[C@H](CN2CCC2)C1)c1ccc(-c2cccc(F)c2)nc1` (relative stereo) [Example 258]: 29.2 nM; `CC(C)(O)[C@@H]1CCC[C@H](NC(=O)c2ccc(-c3cccc(F)c3)nc2)C1` (relative stereo) [Example 262]: 81 nM; `O=C(N[C@H]1CCC[C@@H](NC(=O)N2CCOCC2)C1)c1ccc(-c2cccc(F)c2)nc1` (relative stereo) [Example 267]: 11 nM. Next, `CN1CCN(C(=O)N[C@@H]2CCC[C@H](NC(=O)c3ccc(-c4cccc(F)c4)nc3)C2)CC1` (relative stereo) [Example 268, N-(cis-3-({[6-(3-Fluorophenyl)pyridine-3-yl]carbonyl}amino)cyclohexyl]-4-methylpiperazine-1-carboxamide]: 24.6 nM; `CN(C(=O)[C@@H]1CCC[C@H](NC(=O)c2ccc(-c3cccc(F)c3)nc2)C1)C1CCNCC1` (stereo in doubt) [Example 192, 6-(3-Fluorophenyl)-N-{(1S,3R)-3-[methyl(piperidin-4-yl)carbamoyl]cyclohexyl}nicotinamide]: 15.3 nM. Next, `CN[C@H]1CC[C@H](NC(=O)[C@@H]2CCC[C@H](NC(=O)c3ccc(-c4cccc(F)c4)nc3)C2)CC1` (stereo in doubt) [Example 193, 6-(3-Fluorophenyl)-N-[(1S,3R)-3-{[trans-4-(methylamino)cyclohexyl]carbamoyl}cyclohexyl]nicotinamide]: 10.2 nM; `CC(C)(O)CNC(=O)[C@@H]1CCC[C@H](NC(=O)c2ccc(-c3cccc(F)c3)nc2)C1` (stereo in doubt) [Example 195, 6-(3-Fluorophenyl)-N-{(1S,3R)-3-[(2-hydroxy-2-methylpropyl)carbamoyl]cyclohexyl}nicotinamide]: 11.8 nM; `O=C(N[C@H]1CCC[C@@H](CN2CC(O)C2)C1)c1ccc(-c2cccc(F)c2)nc1` (stereo in doubt) [Example 256, 6-(3-Fluorophenyl)-N-{(1S,3R)-3-[(3-hydroxyazetidin-1-yl)methyl]cyclohexyl}nicotinamide]: 44.1 nM.

Turning to `O=C(NC1(c2ccccn2)CC1)c1ccc(-c2cccc(F)c2)nc1` [Example 1, 6-(3-Fluorophenyl)-N-(1-pyridin-2-ylcyclopropyl)nicotinamide], the IC50 was determined as 64.9 nM. Next, `COC(=O)C1(NC(=O)c2ccc(-c3cccc(F)c3)nc2)CC1` [Example 2, Methyl 1-({[6-(3-fluorophenyl)pyridin-3-yl]carbonyl}amino)cyclopropanecarboxylate]: 319 nM; `COC(=O)C1(NC(=O)c2ccc(-c3cccc(C)c3)nc2)CC1` [Example 3, Methyl 1-({[6-(3-methylphenyl)pyridin-3-yl]carbonyl}amino)cyclopropanecarboxylate]: 246 nM. For the molecule `COC(=O)C1(NC(=O)c2ccc(-c3cccc(OC)c3)nc2)CC1` [Example 4, Methyl 1-({[6-(3-methoxyphenyl)pyridin-3-yl]carbonyl}amino)cyclopropanecarboxylate], the IC50 was ≥ 1000 nM. Next, `COC(=O)C1(NC(=O)c2ccc(-c3ccc(F)cc3)nc2)CC1` [Example 5]: ≥ 1000 nM; `O=C(NC1CCCC1)c1ccc(-c2cccc(F)c2)nc1` [Example 9, N-Cyclopentyl-6-(3-fluorophenyl)nicotinamide]: 7.11 nM. For `COC[C@H]1CCC[C@H]1NC(=O)c1ccc(-c2cccc(F)c2)nc1` [Example 10] the value was 94.3 nM. For `O=C(NC1CCCCC1O)c1ccc(-c2cccc(F)c2)nc1` (stereo not shown) [Example 17, 6-(3-Fluorophenyl)-N-(2-hydroxycyclohexyl)nicotinamide] the value was 2.87 nM; for `O=C(NC1CCCCC1)c1ccc(-c2cccc(F)c2)nc1` [Example 18, N-Cyclohexyl-6-(3-fluorophenyl)nicotinamide], 7.72 nM; for `Cc1cccc(-c2ccc(C(=O)NC3CCCCC3)cn2)c1` [Example 19, N-Cyclohexyl-6-(3-methylphenyl)nicotinamide], 10.2 nM. Turning to `COc1cccc(-c2ccc(C(=O)NC3CCCCC3)cn2)c1` [Example 20, N-Cyclohexyl-6-(3-methoxyphenyl)nicotinamide], the IC50 was 105 nM. As for `O=C(NC1CCCCC1)c1ccc(-c2ccccc2)nc1` [Example 21, N-Cyclohexyl-6-phenylnicotinamide], the half-inhibitory concentration (IC50) stood at 1.66 nM. Next, `O=C(NC1CCCCC1)c1ccc(-c2ccc(F)cc2)nc1` [Example 22, N-Cyclohexyl-6-(4-fluorophenyl)nicotinamide]: 40.8 nM; `O=C(N[C@@H]1CCCC[C@@H]1CO)c1ccc(-c2cccc(F)c2)nc1` [Example 24]: 20.1 nM; `O=C(N[C@H]1CCCC[C@@H]1O)c1ccc(-c2cccc(F)c2)nc1` [Example 25]: 22.3 nM. Next, `CC(C)(O)C1CCC(NC(=O)c2ccc(-c3cccc(F)c3)nc2)CC1` (stereo not shown) [Example 48, 6-(3-Fluorophenyl)-N-[4-(1-hydroxy-1-methylethyl)cyclohexyl]nicotinamide]: 0.614 nM; `O=C(N[C@H]1CC[C@H](O)CC1)c1ccc(-c2cccc(F)c2)nc1` [Example 104, 6-(3-Fluorophenyl)-N-(trans-4-hydroxycyclohexyl)nicotinamide]: 2.29 nM; `CN(C)CCCNC(=O)[C@H]1CC[C@H](NC(=O)c2ccc(-c3cccc(F)c3)nc2)CC1` [Example 113A, N-(trans-4-{[3-(dimethylamino)propyl]carbamoyl}cyclohexyl)-6-(3-fluorophenyl)nicotinamide]: 21.1 nM.

For `O=C(N[C@H]1CC[C@H](C(=O)N[C@@H]2CCNC2=O)CC1)c1ccc(-c2cccc(F)c2)nc1` [Example 113B, 6-(3-fluorophenyl)-N-(trans-4-{[(3R)-2-oxopyrrolidin-3-yl]carbamoyl}cyclohexyl)nicotinamide], the half-maximal inhibitory concentration (IC50) is 7 nM. Next, `O=C(N[C@H]1CC[C@H](C(=O)N[C@H]2CCNC2=O)CC1)c1ccc(-c2cccc(F)c2)nc1` [Example 113C, 6-(3-fluorophenyl)-N-(trans-4-{[(3S)-2-oxopyrrolidin-3-yl]carbamoyl}cyclohexyl)nicotinamide]: 7.4 nM; `N[C@H]1CCCC[C@H]1NC(=O)[C@H]1CC[C@H](NC(=O)c2ccc(-c3cccc(F)c3)nc2)CC1` [Example 113D, N-(trans-4-{[(1R,2S)-2-aminocyclohexyl]carbamoyl}cyclohexyl)-6-(3-fluorophenyl)nicotinamide]: 10.8 nM; `O=C(N[C@H]1CC[C@H](C(=O)N[C@@H]2CCOC2)CC1)c1ccc(-c2cccc(F)c2)nc1` [Example 113E, 6-(3-fluorophenyl)-N-{trans-4-[(3R)-tetrahydrofuran-3-ylcarbamoyl]cyclohexyl}nicotinamide]: 8.8 nM. For `O=C(N[C@H]1CC[C@H](C(=O)NCCCO)CC1)c1ccc(-c2cccc(F)c2)nc1` [Example 113G, 6-(3-fluorophenyl)-N-{trans-4-[(3-hydroxypropyl)carbamoyl]cyclohexyl}nicotinamide] the value was 4.5 nM; for `O=C(N[C@H]1CC[C@H](C(=O)NCCN2CCCCC2)CC1)c1ccc(-c2cccc(F)c2)nc1` [Example 113H, 6-(3-fluorophenyl)-N-{trans-4-[(2-piperidin-1-ylethyl)carbamoyl]cyclohexyl}nicotinamide], 46 nM; for `COCCNC(=O)[C@H]1CC[C@H](NC(=O)c2ccc(-c3cccc(F)c3)nc2)CC1` [Example 113I, 6-(3-fluorophenyl)-N-{trans-4-[(2-methoxyethyl)carbamoyl]cyclohexyl}nicotinamide], 10.5 nM.

As for `CC[C@@H](O)C(=O)N[C@H]1CC[C@H](NC(=O)c2ccc(-c3cccc(F)c3)nc2)CC1` [Example 113J, 6-(3-fluorophenyl)-N-(trans-4-{[(2R)-2-hydroxybutanoyl]amino}cyclohexyl)nicotinamide], the half-inhibitory concentration (IC50) turned out to be 6.6 nM. For `CC(C)(N)C(=O)N[C@H]1CC[C@H](NC(=O)c2ccc(-c3cccc(F)c3)nc2)CC1` [Example 113K, 6-(3-fluorophenyl)-N-{trans-4-[(2-methylalanyl)amino]cyclohexyl}nicotinamide] the value was 9.6 nM. Next, `CC[C@H](O)C(=O)N[C@H]1CC[C@H](NC(=O)c2ccc(-c3cccc(F)c3)nc2)CC1` [Example 113L, 6-(3-fluorophenyl)-N-(trans-4-{[(2S)-2-hydroxybutanoyl]amino}cyclohexyl)nicotinamide]: 6.1 nM.
